Results from patent US20060252807A1, “Novel ortho-terphenyl inhibitors of p38 kinase and methods of treating inflammatory disorders” (Kalypsys, Inc., priority 2005, published 2006).

Target: T1, active p38 alpha enzyme (Upstate Biotechnology) (Homo sapiens, UniProt Q16539)
T1 construct: purchased Upstate Biotechnology
Assay: p38α biochemical assay (ATP turnover, luminescent detection, Cambrex PKlight)
Details: p38α biochemical assay, Table 1 Biological Activity
Method in brief: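 Luminescent ATP-depletion readout measures total ATP turnover by p38α phosphorylating whole MapkapK2 protein. ATP 1.4 uM final; 30C, 2 h. Compounds delivered from DMSO.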

T1 sequence (Q16539 whole entry): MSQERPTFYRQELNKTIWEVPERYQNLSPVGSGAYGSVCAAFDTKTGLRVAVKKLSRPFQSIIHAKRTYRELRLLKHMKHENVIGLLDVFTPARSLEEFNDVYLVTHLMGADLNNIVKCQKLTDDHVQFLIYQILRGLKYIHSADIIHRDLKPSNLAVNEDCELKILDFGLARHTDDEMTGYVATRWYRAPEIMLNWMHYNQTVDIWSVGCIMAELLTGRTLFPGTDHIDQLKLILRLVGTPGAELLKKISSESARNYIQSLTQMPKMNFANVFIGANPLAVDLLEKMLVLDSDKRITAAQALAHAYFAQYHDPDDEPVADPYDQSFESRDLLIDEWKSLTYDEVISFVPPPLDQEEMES

SMILES	IC50
CC(=O)Oc1cccc(C(=O)NCc2onc(-c3ccc(F)cc3)c2-c2nc(C(=O)NC(C)C)cs2)c1 [Example 690]	> 1000 nM
CC(C)NC(=O)c1csc(-c2c(-c3ccc(F)cc3)noc2CNC(=O)c2cccc(Br)c2)n1 [Example 743]	> 1000 nM
CC(C)NC(=O)c1csc(-c2oc(CNC(=O)CCc3ccccc3Br)nc2-c2ccc(F)cc2)n1 [Example 309]	> 1000 nM
CC(C)NC(=O)c1csc(-c2c(-c3ccc(F)cc3)noc2CNC(=O)c2c3ccccc3cc3ccccc23)n1 [Example 778]	> 1000 nM
CC(C)NC(=O)c1csc(-c2c(-c3ccc(F)cc3)noc2CN2CCCCC2)n1 [Example 30, 2-|3-(4-Fluoro-phenyl)-5-piperidin-1-ylmethyl-isoxazol-4-yl|-thiazole-4-carboxylic acid isopropylamide]	> 1000 nM
CC(C)NC(=O)c1csc(-c2oc(CN3CCN(C(=O)C4CCCO4)CC3)nc2-c2ccc(F)cc2)n1 (centres unmarked) [Example 346]	> 1000 nM
COc1ccccc1/C=C/C(=O)NCc1onc(-c2ccc(F)cc2)c1-c1nc(C(=O)NC(C)C)cs1 [Example 680]	> 1000 nM
CC(C)NC(=O)c1csc(-c2oc(CNC(=O)C3CCc4ccccc43)nc2-c2ccc(F)cc2)n1 (centres unmarked) [Example 164]	> 1000 nM
Cc1ccc(C(=O)NCc2onc(-c3ccc(F)cc3)c2-c2nc(C(=O)NC(C)C)cs2)cc1F [Example 624]	> 1000 nM
CCOC(=O)N1CCC(NCc2onc(-c3ccc(F)cc3)c2-c2nc(C(=O)NC(C)C)cs2)CC1 [Example 31]	> 1000 nM
CC(C)NC(=O)c1csc(-c2oc(CN3CCN(C(=O)Cc4cccc(O)c4)CC3)nc2-c2ccc(F)cc2)n1 [Example 381]	≤ 1000 nM
Cc1ccc(F)cc1C(=O)NCc1nc(-c2ccc(F)cc2)c(-c2nc(C(=O)NC(C)C)cs2)o1 [Example 150]	≤ 1000 nM
CC(C)NC(=O)c1csc(-c2c(-c3ccc(F)cc3)noc2CNC(=O)c2ccc(Cl)c([N+](=O)[O-])c2)n1 [Example 749]	> 1000 nM
C#CCNC(=O)c1csc(-c2c(-c3ccc(F)cc3)n[nH]c2C2CCNCC2)n1 [Example 65, 2-|3-(4-Fluoro-phenyl)-5-piperidin-4-yl-1H-pyrazol-4-yl|-thiazole-4-carboxylic acid prop-2-ynylamide]	≤ 1000 nM
CC(C)NC(=O)c1csc(-c2oc(CNC(=O)c3ccc(Cl)c(Br)c3)nc2-c2ccc(F)cc2)n1 [Example 321]	> 1000 nM
CC(C)NC(=O)c1csc(-c2oc(CNC(=O)c3cccc(Oc4ccccc4)c3)nc2-c2ccc(F)cc2)n1 [Example 288]	> 1000 nM
CC(C)NC(=O)c1csc(-c2[nH]c(CN3CCOCC3)nc2-c2ccc(F)cc2)n1 [Example 80, 2-|5-(4-Fluoro-phenyl)-2-morpholin-4-ylmethyl-3H-imidazol-4-yl|-thiazole-4-carboxylic acid isopropylamide]	≤ 1000 nM
CC(C)NC(=O)c1csc(-c2oc(CN3CCN(C(=O)c4ccc(O)cc4O)CC3)nc2-c2ccc(F)cc2)n1 [Example 385]	≤ 1000 nM
CC(C)NC(=O)c1csc(-c2oc(CNC(=O)C(C)NC(=O)OC(C)(C)C)nc2-c2ccc(F)cc2)n1 (centres unmarked) [Example 247]	> 1000 nM
CC(C)NC(=O)c1csc(-c2oc(CN3CCN(C(=O)c4ccccc4C(=O)c4ccc(O)cc4)CC3)nc2-c2ccc(F)cc2)n1 [Example 559]	> 1000 nM
CC(C)NC(=O)c1csc(-c2c(-c3ccc(F)cc3)noc2CNC(=O)c2ccc(N(C)C=O)cc2)n1 [Example 685]	> 1000 nM
CC(C)NC(=O)c1csc(-c2c(-c3ccc(F)cc3)ncn2C)n1 [Example 86, 2-|5-(4-Fluoro-phenyl)-3-methyl-3H-imidazol-4-yl|-thiazole-4-carboxylic acid isopropylamide]	≤ 1000 nM
CC(C)NC(=O)c1csc(-c2oc(CN3CCN(C(=O)CC#N)CC3)nc2-c2ccc(F)cc2)n1 [Example 337]	≤ 1000 nM

Same assay, conditions: p38α kinase; Table 1 Biological Activity

SMILES	IC50
Cc1nc(-c2ccc(F)cc2)c(-c2nc(C(=O)N3CCN(c4ccccc4C#N)CC3)cs2)s1 [Example 1911]	≤ 1000 nM
Cc1ccc([C@@H](C)NC(=O)c2csc(-c3c(-c4ccc(F)cc4)n[nH]c3C3CCNCC3)n2)cc1 [Example 2093]	> 1000 nM
COc1ccc(C(=O)N2CCC(c3[nH]nc(-c4ccc(F)cc4)c3-c3nc(C(=O)NC(C)C)cs3)CC2)c(OC)c1OC [Example 1000]	> 1000 nM
CC(C)NC(=O)c1csc(-c2oc(CNCCCc3ccccc3)nc2-c2ccc(F)cc2)n1 [Example 1119]	> 1000 nM
Cc1nc(-c2ccc(F)cc2)c(-c2nc(C(=O)NCCO)cs2)s1 [Example 1712]	≤ 1000 nM
COc1cc(C(=O)N2CCC(c3[nH]nc(-c4ccc(F)cc4)c3-c3nc(C(=O)NC(C)C)cs3)CC2)cc(OC)c1OC [Example 999]	> 1000 nM
CC(C)NC(=O)c1csc(-c2c(-c3ccc(F)cc3)noc2CNc2cc(C(F)(F)F)ccc2C(F)(F)F)n1 [Example 1697]	> 1000 nM
CCC(C)CNCc1onc(-c2ccc(F)cc2)c1-c1nc(C(=O)NC(C)C)cs1 (centres unmarked) [Example 1399]	> 1000 nM
CC(C)NC(=O)c1csc(-c2c(-c3ccc(F)cc3)n[nH]c2C2CCN(C(=O)c3cc(Cl)ccn3)CC2)n1 [Example 869]	≤ 1000 nM
CN(C)CCNC(=O)c1csc(-c2c(-c3ccc(F)cc3)n[nH]c2C2CCNCC2)n1 [Example 2049]	> 1000 nM
Cc1ccc(C)c(N2CCN(Cc3onc(-c4ccc(F)cc4)c3-c3nc(C(=O)NC(C)C)cs3)CC2)c1 [Example 1594]	> 1000 nM
CC(C)NC(=O)c1csc(-c2c(-c3ccc(F)cc3)noc2CNC2CCc3ccccc32)n1 (centres unmarked) [Example 1443]	> 1000 nM
CC(C)NC(=O)c1csc(-c2c(-c3ccc(F)cc3)n[nH]c2C2CCN(C(=O)/C=C/c3ccccc3O)CC2)n1 [Example 880]	> 1000 nM
Cc1nc(-c2ccc(F)cc2)c(-c2nc(C(=O)NCc3ccc(C(F)(F)F)cc3)cs2)s1 [Example 1818]	≤ 1000 nM
Cc1nc(-c2ccc(F)cc2)c(-c2nc(C(=O)NCCc3c[nH]c4ccccc34)cs2)s1 [Example 1809]	≤ 1000 nM
CC(C)NC(=O)c1csc(-c2oc(CNC3CCCCC3)nc2-c2ccc(F)cc2)n1 [Example 1077]	> 1000 nM
CC(C)NC(=O)c1csc(-c2oc(CNCc3ccc(C(C)C)cc3)nc2-c2ccc(F)cc2)n1 [Example 1141]	> 1000 nM
CC(C)NC(=O)c1csc(-c2oc(CN(C)Cc3ccccc3)nc2-c2ccc(F)cc2)n1 [Example 1217]	> 1000 nM
CSc1ccccc1NC(=O)c1csc(-c2sc(C)nc2-c2ccc(F)cc2)n1 [Example 1991]	> 1000 nM
CC(CNC(=O)c1csc(-c2c(-c3ccc(F)cc3)n[nH]c2C2CCNCC2)n1)c1ccccc1 (centres unmarked) [Example 2094]	> 1000 nM
CC(C)NC(=O)c1csc(-c2c(-c3ccc(F)cc3)noc2CNCc2cccc(F)c2)n1 [Example 1434]	> 1000 nM
CC(C)NC(=O)c1csc(-c2c(-c3ccc(F)cc3)noc2CNCC2CC2)n1 [Example 1392]	> 1000 nM
Cc1nc(-c2ccc(F)cc2)c(-c2nc(C(=O)Nc3cc(Cl)c(Cl)c(Cl)c3)cs2)s1 [Example 2017]	> 1000 nM

SMILES	IC50
Cc1nc(-c2ccc(F)cc2)c(-c2nc(C(=O)NCCc3ccc(Cl)cc3)cs2)s1 [Example 1803]	≤ 1000 nM
CC(C)NC(=O)c1csc(-c2c(-c3ccc(F)cc3)noc2CN2CC(C)OC(C)C2)n1 (centres unmarked) [Example 1538]	> 1000 nM
CC(C)NC(=O)c1csc(-c2c(-c3ccc(F)cc3)n[nH]c2C2CCN(C(=O)C(NC(=O)OC(C)(C)C)C(C)C)CC2)n1 (centres unmarked) [Example 1013]	> 1000 nM
CC(C)NC(=O)c1csc(-c2c(-c3ccc(F)cc3)noc2CN2CCN(C)CC2)n1 [Example 1524]	> 1000 nM
O=C(NCCOc1ccccc1)c1csc(-c2c(-c3ccc(F)cc3)n[nH]c2C2CCNCC2)n1 [Example 2100]	> 1000 nM
C#CCN(C)Cc1nc(-c2ccc(F)cc2)c(-c2nc(C(=O)NC(C)C)cs2)o1 [Example 1187]	> 1000 nM
Cc1nc(-c2ccc(F)cc2)c(-c2nc(C(=O)N(C)CC(O)c3ccc(O)cc3)cs2)s1 (centres unmarked) [Example 1897]	> 1000 nM
CC(C)NC(=O)c1csc(-c2c(-c3ccc(F)cc3)noc2CNCC2CCCO2)n1 (centres unmarked) [Example 1409]	> 1000 nM
Cc1nc(-c2ccc(F)cc2)c(-c2nc(C(=O)N3CCN(C4CCCCC4)CC3)cs2)s1 [Example 1898]	> 1000 nM
CC(C)NC(=O)c1csc(-c2c(-c3ccc(F)cc3)noc2CNc2ccccc2)n1 [Example 1630]	> 1000 nM
CC(C)NC(=O)c1csc(-c2c(-c3ccc(F)cc3)noc2CN2CCN(Cc3ccc4c(c3)OCO4)CC2)n1 [Example 1620]	> 1000 nM
CC(C)NC(=O)c1csc(-c2c(-c3ccc(F)cc3)n[nH]c2C2CCN(C(=O)c3cc(F)ccc3[N+](=O)[O-])CC2)n1 [Example 950]	> 1000 nM
COc1ccc(CCNC(=O)c2csc(-c3sc(C)nc3-c3ccc(F)cc3)n2)cc1 [Example 1799]	≤ 1000 nM
CCN(C(=O)c1csc(-c2sc(C)nc2-c2ccc(F)cc2)n1)C1CCCCC1 [Example 1868]	> 1000 nM
CC(C)NC(=O)c1csc(-c2c(-c3ccc(F)cc3)noc2CN(C)Cc2ccccc2)n1 [Example 1542]	> 1000 nM
Cc1nc(-c2ccc(F)cc2)c(-c2nc(C(=O)NCc3ccc4c(c3)OCO4)cs2)s1 [Example 1796]	≤ 1000 nM
CC(C)NC(=O)c1csc(-c2oc(CN3CCC(O)(O)CC3)nc2-c2ccc(F)cc2)n1 [Example 1236]	> 1000 nM
Cc1nc(-c2ccc(F)cc2)c(-c2nc(C(=O)NCc3ccco3)cs2)s1 [Example 1731]	≤ 1000 nM
CC(C)NC(=O)c1csc(-c2c(-c3ccc(F)cc3)noc2CNc2ccccc2-c2ccccc2)n1 [Example 1685]	> 1000 nM
CC(C)NC(=O)c1csc(-c2c(-c3ccc(F)cc3)noc2CN(C)C[C@H](O)c2ccc(O)c(O)c2)n1 [Example 1582]	> 1000 nM
Cc1nc(-c2ccc(F)cc2)c(-c2nc(C(=O)N3CCCC(CO)C3)cs2)s1 (centres unmarked) [Example 1861]	> 1000 nM
CC(C)NC(=O)c1csc(-c2c(-c3ccc(F)cc3)noc2CNCCC(C)(C)C)n1 [Example 1410]	> 1000 nM
